We go through one molecule from paper PMC10768243 (Microbial Cell Factories, 2024).

The test concerns the target topoisomerase II. Briefly: topoisomerase II activity inhibition assay (isoform not given). Type of test: biochemical.

A word on the IC50: it is the concentration that gives 50% inhibition. A lower IC50 goes with higher potency. Consider `CC[C@@]1(O)C(=O)OCc2c1cc1n(c2=O)Cc2cc3ccccc3nc2-1` [camptothecin], for which half-maximal inhibition (IC50) required 0.52 nM. This counts as sub-nanomolar.
